# Test system: HIV-1 LAI
# Experiment: microbe, parasite or virus in culture
# Conditions: for EC50: Human immunodeficiency virus 1, MT2, 120 h; for Combination Indices at % HIV Inhibition (Confidence Interval) 50%: 50% HIV inhibition; for Combination Indices at % HIV Inhibition (Confidence Interval) 50% / Combination Indices at % HIV Inhibition (Confidence Interval) 75% / Combination Indices at % HIV Inhibition (Confidence Interval) 90%: 95% CI in parenthesis; for Combination Indices at % HIV Inhibition (Confidence Interval) 75%: 75% HIV inhibition; for Combination Indices at % HIV Inhibition (Confidence Interval) 90%: 90% HIV inhibition; for Overall Result: two-drug combination with Compound 1, all ratios and effect levels, MT-2/HIV-1 LAI, RT assay
# Procedure: Virus and cell lines. The T-cell lines, MT-2 and PM-1 were obtained through the AIDS Research and Reference Reagent Program, NIAID, and were contributed by Dr. D. Richman and Dr. R. Gallo, respectively. Both cell lines were cultured in RPMI 1640 medium supplemented with 10% fetal bovine serum, 2 mM L-glutamine and sub-cultured twice a week. The LAI strain of HIV-1 was obtained from the Fred Hutchinson Cancer Research Center, and the Bal strain was from NIH. Both virus stocks were amplified and titered in MT-2 cells (LAI) and PM-1 cells (Bal) using a virus infectivity assay.
# Drug Susceptibility and Cytotoxicity Assays. For drug susceptibility assays, MT-2 cells were infected with HIV-1 LAI (or PM-1 cells with HIV-1 Bal) at an MOI of 0.005, and seeded into 96-well microtiter plates (0.1×10^6 cells/ml) containing serial dilutions of test compounds. […] Each drug ratio consisted of an array of 3-fold serial dilutions, and was performed in quadruplicate. The plates were incubated at 37° C./5% CO2. The MT-2 cells infected with HIV-1 LAI were incubated for 5 days. On day-five post-infection, 20 μl from each well was harvested and quantitated by a reverse transcriptase (RT) assay, or in samples involving non-nucleoside RT inhibitors, an MTS assay. The PM-1 cells infected with HIV-1 Bal and used for studying the combinations with CCR5 inhibitors were incubated for six days. On day-six post-infection, 20 μl from each well was harvested, 20- and 50-fold diluted and quantitated by p24 assay. Cytotoxicity assays were performed using uninfected cells, exposed to the same drug combinations, and incubated for six days. Cell viability was determined by an XTT assay. The CC50 values were calculated by using the exponential form of the median effect equation as mentioned below for calculation of EC50.
# Analysis of Drug Combination Effects. For determination of CI values, drugs were diluted in a fixed ratio and multiple ratios were analyzed. The drug serial dilutions spanned a range of concentrations near the EC50 value of each compound, so that equivalent antiviral activities could be compared. Concentration-response curves were estimated for each individual drug and every combination using the median-effect equation. The equation was fit using a nonlinear regression routine (Proc Nlin) in PC SAS version 8.01 (SAS Institute Inc., SAS Version 8.01, Cary, N.C.: SAS Institute Inc., 1990).
# In this equation, Fa stands for “fraction affected,” and represents the fraction of the viral load that has been inactivated. […] ED50 is drug concentration that is expected to reduce the amount of virus by 50%, and m is a parameter that reflects the slope of the concentration-response curve.
# To assess antiviral effects of different drug combination treatments, combination indices (CIs) were calculated according to Chou and Rideout. The combination index was computed as CI=[D]1/[Dm]1+[D]2/[Dm]2
# In this equation [Dm]1 and [Dm]2 are the concentrations of drugs that would individually produce a specific level of effect, while [D]1 and [D]2 are the concentrations of drugs in combination that would produce the same level of effect.
# Theoretically, additivity is implied if the CI is equal to one, synergy if the CI is less than one, and antagonism if the CI is greater than one. […] At best, we can construct a range that contains the likely values for the CI, given the noise in the data. In this report, these ranges are reported in parentheses next to each point estimate of the CI. […] If the range fell entirely above 1.0, we would infer antagonistic behavior. If the range were to include 1.0, we would infer additivity.
# In carrying out the combination experiments below, the EC50 for Compound 1 and each comparator compound was determined during the course of each study, and used in the subsequent data analysis.
# [1] = combination with Compound 1, EC50 ratio 1:1 (Compound 1:comparator)
# [2] = combination with Compound 1, EC50 ratio 1:1
# [3] = combination with Compound 1, EC50 ratio 1:2.5
# [4] = combination with Compound 1, EC50 ratio 2.5:1
EC50,Structure (SMILES),Combination Indices at % HIV Inhibition (Confidence Interval) 50% [1],Combination Indices at % HIV Inhibition (Confidence Interval) 75% [2],Combination Indices at % HIV Inhibition (Confidence Interval) 90% [2],Combination Indices at % HIV Inhibition (Confidence Interval) 50% [3],Combination Indices at % HIV Inhibition (Confidence Interval) 75% [3],Combination Indices at % HIV Inhibition (Confidence Interval) 90% [3],Combination Indices at % HIV Inhibition (Confidence Interval) 50% [4],Combination Indices at % HIV Inhibition (Confidence Interval) 75% [4],Combination Indices at % HIV Inhibition (Confidence Interval) 90% [4],Overall Result,Overall Result (listed as zalcitabine),Overall Result (listed as emtricitabine),Overall Result (listed as zidovudine),Overall Result (listed as indinavir),Overall Result (listed as nelfinavir)
110 nM,"Nc1ccn([C@H]2CC[C@@H](CO)O2)c(=O)n1 [Zalcitabine, zalcitabine]","0.55 (0.41, 0.70)","0.57 (0.36, 0.77)","0.59 (0.25, 0.92)","0.87 (0.65, 1.08)","0.66 (0.44, 0.89)","0.51 (0.24, 0.78)","0.68 (0.48, 0.89)","0.64 (0.37, 0.90)","0.59 (0.20, 0.98)",Synergistic,consistent synergy at all effective levels and concentration ratios,–,–,–,–
34 nM,"Nc1nc(=O)n([C@@H]2CS[C@H](CO)O2)cc1F [Emtricitabine, emtricitabine]","0.57 (0.49, 0.64)","0.33 (0.27, 0.39)","0.19 (0.14, 0.24)","0.38 (0.31, 0.45)","0.48 (0.36, 0.60)","0.60 (0.36, 0.84)","0.17 (0.15, 0.19)","0.21 (0.17, 0.25)","0.26 (0.18, 0.34)",Synergistic,–,consistent synergy at all effective levels and concentration ratios,–,–,–
22 nM,"Cc1c(O)cccc1C(=O)N[C@@H](CSc1ccccc1)[C@H](O)CN1C[C@H]2CCCC[C@H]2C[C@H]1C(=O)NC(C)(C)C [Nelfinavir, nelfinavir]","0.66 (0.60, 0.73)","0.78 (0.67, 0.88)","0.91 (0.71, 1.10)","0.29 (0.31, 0.46)","0.62 (0.45, 0.79)","0.99 (0.57, 1.41)","0.77 (0.69, 0.86)","0.69 (0.62, 0.77)","0.62 (0.49, 0.75)",Moderate,–,–,–,–,moderate synergy
8 nM,c1cc(CN2CCCNCCNCCCNCC2)ccc1CN1CCCNCCNCCCNCC1 [AMD-3100],"0.40 (0.34, 0.46)","0.27 (0.21, 0.33)","0.18 (0.12, 0.24)","0.25 (0.21, 0.29)","0.14 (0.11, 0.17)","0.08 (0.05, 0.10)","0.15 (0.11, 0.20)","0.28 (0.18, 0.38)","0.51 (0.20, 0.83)",–,–,–,–,–,–

# Continued, compound first:
Structure (SMILES),EC50,Combination Indices at % HIV Inhibition (Confidence Interval) 50% [1],Combination Indices at % HIV Inhibition (Confidence Interval) 75% [2],Combination Indices at % HIV Inhibition (Confidence Interval) 90% [2],Combination Indices at % HIV Inhibition (Confidence Interval) 50% [3],Combination Indices at % HIV Inhibition (Confidence Interval) 75% [3],Combination Indices at % HIV Inhibition (Confidence Interval) 90% [3],Combination Indices at % HIV Inhibition (Confidence Interval) 50% [4],Combination Indices at % HIV Inhibition (Confidence Interval) 75% [4],Combination Indices at % HIV Inhibition (Confidence Interval) 90% [4],Overall Result,Overall Result (listed as zalcitabine),Overall Result (listed as emtricitabine),Overall Result (listed as zidovudine),Overall Result (listed as indinavir),Overall Result (listed as nelfinavir)
"Nc1ccn([C@@H]2CS[C@H](CO)O2)c(=O)n1 [Lamivudine, lamivudine]",140 nM,"1.02 (0.80, 1.23)","0.59 (0.42, 0.76)","0.37 (0.21, 0.53)","0.89 (0.76, 1.02)","0.41 (0.34, 0.47)","0.20 (0.15, 0.24)","1.07 (0.95, 1.20)","0.71 (0.58, 0.83)","0.50 (0.36, 0.65)",–,–,–,–,–,–
"COc1ncc(OC)c2c(C(=O)C(=O)N3CCN(C(=O)c4ccccc4)CC3)c[nH]c12 [Compound 1, 1-benzoyl-4-[2-(4,7-dimethoxy-1H-pyrrolo[2,3-c]pyridin-3-yl)-1,2-dioxoethyl]-piperazine]",1 to 4 nM,–,–,–,–,–,–,–,–,–,–,–,–,–,–,–
"Cc1cn([C@H]2C[C@H](N=[N+]=[N-])[C@@H](CO)O2)c(=O)[nH]c1=O [Zidovudine, zidovudine]",3 nM,"1.06 (0.85, 1.27)","0.99 (0.72, 1.26)","0.93 (0.53, 1.34)","1.21 (1.01, 1.40)","0.95 (0.74, 1.16)","0.76 (0.50, 1.02)","0.81 (0.69, 0.92)","0.70 (0.56, 0.83)","0.60 (0.42, 0.79)",Additive-,–,–,additive to synergistic,–,–
"CC(C)(C)NC(=O)[C@@H]1CN(Cc2cccnc2)CCN1C[C@@H](O)C[C@@H](Cc1ccccc1)C(=O)N[C@H]1c2ccccc2C[C@H]1O [Indinavir, indinavir]",0.7 nM,"0.55 (0.46, 0.64)","0.57 (0.45, 0.70)","0.61 (0.39, 0.83)","0.35 (0.24, 0.47)","0.21 (0.17, 0.24)","0.32 (0.20, 0.43)","0.31 (0.22, 0.40)","0.41 (0.27, 0.55)","0.54 (0.20, 0.87)",Synergistic,–,–,–,strong synergistic effects,–
"Nc1nc(NC2CC2)c2ncn([C@H]3C=C[C@@H](CO)C3)c2n1 [Abacavir, abacavir]",400 nM,"0.29 (0.16, 0.42)","0.51 (0.20, 0.82)","0.91 (0.03, 1.78)","0.53 (0.36, 0.70)","0.61 (0.33, 0.88)","0.71 (0.21, 1.22)","0.36 (0.27, 0.45)","0.52 (0.34, 0.71)","0.76 (0.34, 1.19)",–,–,–,–,–,–

# From patent US20050215543A1, “Methods of treating HIV infection” (priority 2004, published 2005)
